The values below come from patent US9220814B2, “Broad-spectrum antimicrobial compositions based on combinations of taurolidine and protamine and medical devices containing such compositions” (Ethicon, Inc., priority 2011, dated 2015).

For data set [1], the system named is Staphylococcus aureus ACTT 6538. As to the kind of experiment: in vitro MBC (minimum bactericidal concentration) study of PS:TU ratios in SST medium. Format: cell-based. The protocol: The range of the ratios of the components of the synergistic antimicrobial compositions of the present invention was obtained by an in vitro MBC (minimum bactericidal concentration) study. The study was conducted in SST medium inoculated with about 10^6 CFU/ml Staphylococcus aureus ACTT 6538. In vitro efficacy was evaluated for different ratios of PS and TU combinations along with the stand alone (i.e., individual) compositions at the same concentrations as in the combination composition. After incubation at 37° C. for 24 hours, viable bacteria populations were measured by plate count. Log reduction (LR) was used as the end point for efficacy and was defined as Log CFU/ml of untreated control−Log CFU/ml of treated. The synergistic index (SI) was defined as the LR of a given combination−sum of LR of single component at the same concentration as in the combination. An SI=0 indicated additive effect, SI=1, indicated 90% more bacterial cedality, SI=2 indicated 99% more bacterial cedality, SI=3, indicated 99.9% more bacterial cedality, etc., by a combination than its stand alone components at the same usage, thus synergy.

Data set [2] shares this test system. In words: in vitro bacteria attachment assay on coated mesh discs in SST medium. Format: cell-based. Conditions: for Log reduction: 4 hours SST 37° C. The method, then: Taurolidine was dissolved at 4% wt./vol. in a 70% acetone 30% water vol./vol. mixture. Protamine sulfate was dissolved at 10% wt./vol. in water under warming. 50 μl of the taurolidine (TU) solution and 20 μl of the protamine (PS) solution were applied to each mesh disk using a pipette and allowed to dry at 50° C. until the majority of the liquid was gone and then stored under vacuum. First the taurolidine solution was applied, and then immediately thereafter the protamine sulfate solution was applied. The in vitro bacteria attachment assay was developed for its utility of indicating biofilm prevention potential of prototype mesh. Since bacterial attachment to a surface is the first step of biofilm formation, a surface treatment that inhibits bacterial attachment would reduce the chance of subsequent biofilm formation. The assay was conducted in SST (Serum Saline TSB) medium to mimic in vivo and clinical conditions. The formulation of SST is Tryptic Soy Broth (TSB):serum:saline in the ratio of 1:2:7. Each test article was incubated in SST inoculated with Staphylococcus aureus ACTT 6538 or Escherichia coli ATCC 25922 at about 6 Log CFU/ml. After incubation with rotation of 60 rpm for 4 hours at 37° C., the mesh discs were washed in saline 3 times to remove unattached bacteria. Bacteria attached to the mesh were collected by sonication in saline with neutralizing agent. Viable bacteria populations were measured by plate count on TSA (Tryptic Soy agar) medium contain neutralizing agents. The use of neutralizing agents in bacteria suspension and plate count medium was to eliminate any carry over antimicrobial effect from the coating. The plates were incubated at 37° C. for 24 hours. The number of attached viable bacteria was reported as CFU/disc. In accordance with Example 1, surgical mesh discs coated with different stand alone and combinations of taurolidine+protamine sulfate were prepared. Protocols of mesh coating and in vitro attachment assay as in Example 1 were used for this Example 3.

Data set [3] concerns Escherichia coli ATCC 25922. The description is as above. Format: cell-based. Conditions: treated mesh surface, serum containing media. The method, then:
Taurolidine was dissolved at 4% wt./vol. in a 70% acetone 30% water vol./vol. mixture. Protamine sulfate was dissolved at 10% wt./vol. in water under warming. 50 μl of the taurolidine (TU) solution and 20 μl of the protamine (PS) solution were applied to each mesh disk using a pipette and allowed to dry at 50° C. until the majority of the liquid was gone and then stored under vacuum. First the taurolidine solution was applied, and then immediately thereafter the protamine sulfate solution was applied. The in vitro bacteria attachment assay was developed for its utility of indicating biofilm prevention potential of prototype mesh. Since bacterial attachment to a surface is the first step of biofilm formation, a surface treatment that inhibits bacterial attachment would reduce the chance of subsequent biofilm formation. The assay was conducted in SST (Serum Saline TSB) medium to mimic in vivo and clinical conditions. The formulation of SST is Tryptic Soy Broth (TSB):serum:saline in the ratio of 1:2:7. Each test article was incubated in SST inoculated with Staphylococcus aureus ACTT 6538 or Escherichia coli ATCC 25922 at about 6 Log CFU/ml. […] Viable bacteria populations were measured by plate count on TSA (Tryptic Soy agar) medium contain neutralizing agents. […]

In another data set the test system is S. aureus ACTT 6538. In words: bactericidal two-dimensional concentration matrix of TU and PS in SST medium, plate count. Format: cell-based, Staphylococcus aureus. Conditions: TU alone at 100 ppm, 37° C. 24 hours. The method, then:
Concentration gradients of TU and PS were diluted in an SST medium and made into a two-dimensional matrix. Bacteria of interest were inoculated to the matrix at about 10e6 CFU/ml. S. aureus ACTT 6538 or E. coli ATCC 25922 were used for this Example 2. After incubation at 37° C. for 24 hours, viable bacteria populations were measured by plate count. Log reduction (LR) was used as the end point for efficacy and was defined as: Log CFU/ml of untreated control−Log CFU/ml of treated. Synergistic index (SI) was defined as LR of a given combination−sum of LR of single component at the same concentration as in the combination. SI=0 indicated additive effect, SI=1, indicated 90% more bacterial cedality, SI=2 indicated 99% more bacterial cedality, SI=3, indicated 99.9% more bacterial cedality, etc., by combination than its stand alone compositions at the same usage, thus synergy.

The conditions of data set [4]: cited from earlier work.

Take `O=S1(=O)CCN(CN2CCS(=O)(=O)NC2)CN1` [TU, bis(1,1-dioxoperhydro-1,2,4-thiadiazinyl-4)-methane]: the LR-TU in data set [1] (TU alone at same concentration as in PS:TU 1:1), in data set [1] (TU alone at same concentration as in PS:TU 1:10), in data set [1] (TU alone at same concentration as in PS:TU 1:50), in data set [1] (TU alone at same concentration as in PS:TU 1:100), in data set [1] (TU alone at same concentration as in PS:TU 1:200) and in data set [1] (TU alone at same concentration as in PS:TU 10:1) was 0 throughout. For the same molecule, in data set [1] (TU alone at same concentration as in PS:TU 50:1), the LR-TU is on record as 0. Further, the Log reduction in data set [2] (TU 500 μg/disc alone) came out at 1; in data set [2] (TU 1000 μg/disc alone), 0.8; in data set [2] (TU 2000 μg/disc alone), 2. In addition, the “inhibition of attachment by S. aureus (in words)” value in data set [2] (treated mesh surface, serum containing media) was “less inhibition than the combination”. In addition, the “inhibition of attachment by E. coli (in words)” value in data set [3] is recorded as “less inhibition than the combination”. For the same molecule, the “Log reduction (LR)” value in the data set with S. aureus ACTT 6538 amounted to 0. Moreover, the “safe and well tolerated cumulative dose” value in data set [4] (cumulative doses) is “exceeding 300 g”. Further, the “safe and well tolerated systemic dose” value in data set [4] (systemic doses) is “exceeding 40 g/day”.
